# Reference: PMC2607018, “Iodine Atoms: A New Molecular Feature for the Design of Potent Transthyretin Fibrillogenesis Inhibitors” (PLoS ONE, 2009)
# Read-outs that look alike come from different tables or passages of the source.
# Experiments:
# [1] = target: T1, recombinant wild type TTR (Homo sapiens, UniProt P02766); assay: T4 competition assay (125I-T4, gel filtration); format: binding; settings: for affinity for TTR relative to T4, in words: from T4 displacement
# T1 construct: made in house; host or cells: E. coli
# Text: To evaluate the relative binding affinity of the compounds for TTR an already described procedure was followed.
# TTR variant Y78F = TTR variant Y78F (Homo sapiens, UniProt P02766, Y98F); assay: Kinetic turbidity assay of acid induced fibril formation; format: biochemical
# Text: Two different parameters can be derived from this kinetic test. The IC50 value is the inhibitor concentration at which the initial rate of fibril formation is half than that in the absence of inhibitor. In turn, RA (%) can be defined as the percent reduction of fibril formation rate at high inhibitor concentration relative to the rate at zero concentration of tested compound.
# An in vitro turbidimetric test in a high troughput mode was used to assess the fibrillogenesis inhibition potency of the compounds of the library. The mutant protein TTRY78F was incubated with various concentrations of test compounds in 96 well microplates. After lowering the pH of the solutions to 4.2, the incubation was extended for 1.5 h while recording the absorbance at 340 nm at 1 min intervals. […] (Figure S1).
# The mutant Y78F TTR protein (0.4 mg.mL^-1) was incubated for 30 min (pH 7.6, 37 °C) with 6 concentrations of test compounds ranging from 0 to 40 µM in 96-well microplates.
# IC50% value is the inhibitor concentration at which the initial rate of fibril formation is half of that in the absence of inhibitor. RA(%) is the percentage of reduction in fibril formation rate induced by a given concentration of test compound relative to the rate of experiments at zero concentration of test compound.
# [2] = tested on: natural TTR tetramers occurring in blood plasma of control and FAP patients; set-up: method as in PMID 15080795; settings: cited from earlier work
# TTRY78F [3] = target: T2, TTRY78F (Homo sapiens, UniProt P02766, Y98F); set-up: method as in PMID 15080795; settings: 1:2 proportion of TTRY78F/inhibitor; cited from earlier work
# TTRY78F [4] = target: T2, TTRY78F; assay: Tetramer dissociation in 6M urea monitored by far-UV circular dichroism; format: biochemical; settings: TTRY78F 3.6 µM, inhibitor 7.2 µM, 25 °C
# Text: (§1) The stabilizing effect of iodine atoms on the tetrameric form of both TTRwt and TTRY78F has been further evaluted on urea induced dissociation experiments by comparing the performance of iododiflunisal versus diflunisal. Thus, after allowing maximum stabilization of the tetrameric forms of both TTR wild type and Y78F mutant proteins by formation of TTR/inhibitor complexes of (1:2) stoichiometry, measures of circular dichroism in the far-UV of changes in the secondary structure of TTR were recorded as a function of time in 6M urea solutions. It has been assumed that the rate of tetramer dissociation is irreversibly associated to fast monomer unfolding when employing urea concentrations exceeding those that may enable monomer refolding.
# (§2) It is known that the dissociation of the tetrameric form of TTRwt takes an average of 42 h and the resulting monomers quickly unfold 500.000 times faster. Therefore the rate of dissociation can be estimated by lining it to unfolding which is irreversible in 6M urea. Thus, owing that the tetramer dissociation is the rate limiting step for fibrilogenesis and assuming the kinetic stabilizing mechanism of inhibition, good inhibitors should slow tetramer dissociation.
# (§3) Although slow tetramer dissociation is not detectable by far-UV CD spectroscopy, this technique is very much suitable at monitoring the much faster unfolding step.The CD spectra of TTR corresponds to a typical β-sheet reach protein with a Cotton effect centered at 210 nm and a shoulder at 217 nm. This band gradually looses intensity as protein denaturation advances, therefore meaningful changes in the β-sheet content of the protein are normally recorded in the region of 210–250 nm. Below this region (190–210 nm) other interesting structural changes are masked by the high concentrations of urea required for denaturation. Results are here presented in unfolded fraction units which are calculated from each spectra assuming than at time zero the elipticity recorded corresponds to the fully folded protein while at 200 h this parameter agrees with a totally unfolded state.
# (§4) Both proteins were incubated in buffered solutions of 6M urea in the presence and absence of 1:2 ratios of protein to inhibitor and far-UV CD spectra ([…]) were intermitently recorded for a period of 200 hours. […]
# (§5) Protein stock solutions of wtTTR and TTRY78F of 1 mg/ml of protein in 50 mM of sodium phosphate buffer, 1mM EDTA, pH 7.0 were also prepared from mother solutions of both proteins containing 4 mg/mL (72.7 µM) of wtTTR and 3 mg/mL (55.5 µM) of TTRY78F that were determined by spectrophotometrical methods. […] The samples were incubated over a period of 200 hours at 25 °C and far-UV CD spectra (210-250 nm) were periodically recorded in a JASCO 600 instrument. […]
# TTRwt = TTRwt (Homo sapiens, UniProt P02766); assay: as above; format: biochemical; settings: TTRwt 3.6 µM, inhibitor 7.2 µM, 25 °C
# Text: as §1, §2, §3, §4, §5
# [5] = tested on: thyroid hormone receptor alfa; assay: In vitro binding test to thyroid hormone receptors; settings: data not shown
# Method: (§6) To gain further insight on the therapeutic potential of these iodinated TTR fibrillogenesis inhibitors, in vitro binding tests of idodiflunisal to thyroid hormone receptors alfa and beta were carried out (data not shown). […] This has been further confirmed by preclinical animal studies using a TTRV30M transgenic mice strain receiving 2.8 mg of iododiflunisal per day during 3 months. […] However, further preclinical tests are needed to validate these compounds as potential drugs for TTR related amyloidosis.
# [6] = target: T3, thyroid hormone receptor beta (Homo sapiens, UniProt P10828); assay: In vitro binding test to thyroid hormone receptors; settings: data not shown
# T3 sequence (P10828 1-461): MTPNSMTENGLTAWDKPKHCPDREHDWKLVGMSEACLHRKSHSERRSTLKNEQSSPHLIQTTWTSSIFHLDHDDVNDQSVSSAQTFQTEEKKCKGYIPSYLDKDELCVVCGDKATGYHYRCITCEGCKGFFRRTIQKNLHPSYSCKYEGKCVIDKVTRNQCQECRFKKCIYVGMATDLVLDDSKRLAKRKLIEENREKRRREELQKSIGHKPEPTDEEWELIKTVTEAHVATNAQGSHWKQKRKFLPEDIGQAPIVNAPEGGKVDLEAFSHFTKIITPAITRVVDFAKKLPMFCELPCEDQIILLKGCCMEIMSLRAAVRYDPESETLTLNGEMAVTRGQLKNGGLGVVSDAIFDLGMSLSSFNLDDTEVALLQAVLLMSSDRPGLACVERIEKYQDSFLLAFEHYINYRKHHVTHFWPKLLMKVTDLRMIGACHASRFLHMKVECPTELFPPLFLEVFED
# Method: as §6
# [7] = tested on: TTRV30M transgenic mice strain; assay: Preclinical animal study, 3 months; format: in vivo; settings: 2.8 mg per day during 3 months
# Method: as §6
# [8] = inhibitor concentration at which the initial rate of fibril formation is half, Y78F TTR 0.4 mg/mL, pH 4.2, 37 °C, read-out: Kinetic turbidity assay IC50
# [9] = fibrillogenesis inhibition assay, effect of iodination, read-out: Inhibitory efficiency, rough screening (Figure 3, measure not given)
structure (smiles),measurement,setting,value
"O=C(O)CCNC(=O)c1cc(-c2ccc(F)cc2F)cc(I)c1O [22b, N-[2’-,4’-difluoro-4-hydroxy-5-iodo-[1,1’]-biphenyl-3-carbonyl]-β-alanine]","affinity for TTR relative to T4, in words",[1],equal affinity for TTR than T4
same,T4 Displacement EC50(T4)/EC50(I),"[1]; wild type TTR 30 nM, 125I-T4, test compounds 0-10 µM, relative to cold T4",0.95
same,"fibrillogenesis inhibitory potency, in words",TTR variant Y78F,very potent inhibitor
"CCOC(=O)[C@H](C)NC(=O)c1cc(-c2ccc(F)cc2F)cc(I)c1O [11b, N-[2’,4’-difluoro-4-hydroxy-5-iodo-[1,1’]-biphenyl-3-carbonyl]-L-alanine ethyl ester]","affinity for TTR relative to T4, in words",[1],higher affinity values for TTR than T4
same,IC50,TTR variant Y78F; [8],5.7 µM
"COC(=O)C(CC(=O)OC(C)(C)C)NC(=O)c1cc(-c2ccc(F)cc2F)cc(I)c1O [19b, N-[2’,4’-difluoro-4-hydroxy-5-iodo-[1,1’]-biphenyl-3-carbonyl]-L-aspartic α-methyl ester and β-tert-butyl ester]","affinity for TTR relative to T4, in words",[1],higher affinity values for TTR than T4
same,IC50,TTR variant Y78F; [8],5.8 µM
"CC(C)(C)OC(=O)[C@H](CC(N)=O)NC(=O)c1cc(-c2ccc(F)cc2F)cc(I)c1O [21b, N-[2’,4’-difluoro-4-hydroxy-5-iodo-[1,1’]-biphenyl-3-carbonyl]-L-asparagine tert-butyl ester]",IC50,TTR variant Y78F; [8],9.7 µM
O=C(NC(CO)C(=O)O)c1cc(-c2ccc(F)cc2F)ccc1O (stereo not drawn) [14a],IC50,TTR variant Y78F; [8],> 50 µM
"O=C(O)c1cc(-c2ccc(F)cc2F)cc(I)c1O [1b, 2’,4’-difluoro-4-hydroxy-5-iodo-[1,1’]-biphenyl-3-carboxylic acid]",stabilizing effect on TTR tetramers,[2],more potent stabilizing effect
same,aggregates seen by TEM,TTRY78F [3],completely prevented
same,protein denaturation (tetramer dissociation) after 200 h,TTRY78F [4],30%
same,protein denaturation (unfolding) after 200 h,TTRwt,30%
same,binding constants,[5],almost negligible
same,binding constants,[6],almost negligible
same,metabolic disfunctions,[7],did not show significant metabolic disfunctions
"CC(NC(=O)c1cc(-c2ccc(F)cc2F)cc(I)c1O)C(=O)O [9b, N-[2’,4’-difluoro-4-hydroxy-5-iodo-hydroxy-[1,1’]-biphenyl-3-carbonyl]-L-alanine]",IC50,TTR variant Y78F; [8],5.8 µM
"O=C(O)c1cc(-c2ccc(F)cc2F)ccc1O [1a, 2’,4’-difluoro-4-hydroxy-[1,1’]-biphenyl-3-carboxylic acid, reference compound]",aggregates seen by TEM,TTRY78F [3],still allow amyloid precipitates to occur
same,protein denaturation (tetramer dissociation) after 200 h,TTRY78F [4],80%
same,protein denaturation (unfolding) after 200 h,TTRwt,60%
"O=C(O)c1ccc(Oc2ccccc2)cc1 [Phenoxybenzoic, reference compound]",IC50,TTR variant Y78F; [9],29 µM
"Nc1c(I)cc(-c2ccc(F)cc2F)cc1C(=O)O [5b, 2’,4’-difluoro-4-amino-3-iodo-[1,1’]-biphenyl-3-carboxylic acid]",IC50,TTR variant Y78F; [8],16.3 µM
"NC(=O)c1cc(-c2ccc(F)cc2F)cc(I)c1O [2b, 2’,4’-difluoro-4-hydroxy-5-iodo-[1,1’]-biphenyl-3-carboxamide]",IC50,TTR variant Y78F; [8],12.4 µM
"CC(C)C[C@H](NC(=O)c1cc(-c2ccc(F)cc2F)cc(I)c1O)C(=O)O [12b, N-[2’,4’-difluoro-4-hydroxy-5-iodo-[1,1’]-biphenyl-3-carbonyl]-L-leucine]",IC50,TTR variant Y78F; [8],5 µM
"O=C(O)c1ccc(-c2ccccc2)cc1 [Biphenyl carboxylic, reference compound]",IC50,TTR variant Y78F; [9],49 µM
"COC(=O)c1cc(-c2ccc(F)cc2F)ccc1N [6a, 2’,4’-difluoro-4-amino-[1,1’]-biphenyl-3-carboxylic acid methyl ester]",IC50,TTR variant Y78F; [8],41 µM
"COC(=O)[C@H](CO)NC(=O)c1cc(-c2ccc(F)cc2F)ccc1O [15a, N-[2’,4’-difluoro-4-hydroxy-[1,1’]-biphenyl-3-carbonyl]-L-serine methyl ester]",IC50,TTR variant Y78F; [8],> 50 µM
